This experiment concerns NHE3. The format is cell-based, human. The conditions noted are these: for activity: read-out: Stimulation of NHE3 activity (%).

5 substances from publication PMC11283679 (Gastroenterology, 2023) can be followed below.

Ends that are not written are not given here. C(BODIPY) = not defined here

A word on the EC50: it is the concentration that produces a half-maximal response. A higher EC50 goes with a less potent agent.

For “N3SP-1Δ5: N3SP-1 with truncation of 5 N-terminal aa (TPRPSTVEASVSYLLRESASAVCLDMQSLEQRR-{C(BODIPY)}; reading uncertain; UniProt P26432 573-605, looked up, fragment)”, the response was half-maximal at 154 nM (EC50) and the activity amounted to 39%.

“N3SP-1Δ6: N3SP-1 with truncation of 6 N-terminal aa (PRPSTVEASVSYLLRESASAVCLDMQSLEQRR-{C(BODIPY)}; reading uncertain; UniProt P26432 574-605, looked up, fragment)”: the concentration for a half-maximal effect (EC50) is 151 nM and the activity turned out to be 40%.

“N3SP-1Δ8: N3SP-1 with truncation of 8 N-terminal aa (PSTVEASVSYLLRESASAVCLDMQSLEQRR-{C(BODIPY)}; reading uncertain; UniProt P26432 576-605, looked up, fragment)”: the activity amounted to 9%.

As to “N3SP-1Δ9: N3SP-1 with truncation of 9 N-terminal aa (STVEASVSYLLRESASAVCLDMQSLEQRR-{C(BODIPY)}; reading uncertain; UniProt P26432 577-605, looked up, fragment)”, the “Stimulation of NHE3 activity (%)” value is listed as “No”.

With “N3SP-1Δ18: N3SP-1 with truncation of 18 N-terminal aa (LLRESASAVCLDMQSLEQRR-{C(BODIPY)}; reading uncertain; UniProt P26432 586-605, looked up, fragment)”, the “Stimulation of NHE3 activity (%)” value is on record as “No”.
